In ChEMBL document CHEMBL5661965, “CI-1033, a pan-erbB tyrosine kinase inhibitor” (Semin Oncol, 2001):

Key:
Format in all cases: functional
A-431 [1] = experiment: Antitumor activity against human A-431 cells xenografted in mouse assessed as average tumor volume at 20 to 40 mg/kg/day, po started on day 14 post-implant and measured on day 23 (reference value: >1200 mg); details: dose 20-40 mg/kg/day, time 23 day
A-431 [2] = experiment: Antitumor activity against human A-431 cells xenografted in mouse assessed as reduction in average tumor volume at 1.25 to 40 mg/kg/day, po started on day 14 post-implant, stopped on day 66, and then restarted on day 76 for 2 additional weeks; details: dose 1.25-40 mg/kg/day, read-out: MED
A-431 [3] = experiment: Antitumor activity against human A-431 cells xenografted in mouse assessed as average tumor volume at 1.25 to 10 mg/kg/day, po started on day 14 post-implant and measured on day 23 (reference value: >1200 mg); details: dose 1.25-10 mg/kg/day, time 23 day

C=CC(=O)Nc1cc2c(Nc3ccc(F)c(Cl)c3)ncnc2cc1OCCCN1CCOCC1.Cl.Cl [CANERTINIB DIHYDROCHLORIDE]
Activity (A-431 [1]): <=100 mg | minimal effective dose (A-431 [2]): 1.25 mg/kg/day | Activity (A-431 [3]): 175 mg
